Results from the supplement of paper PMC8671470.
± gives the standard deviation of the averaged measurements.

Columns and labels:
Conditions in all cases: 72 h
[1] = tested on: MV4-11
Outline: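 In 384-well plates holding acoustically pre-printed compounds at five tenfold doses from 1 to 10,000 nM, in duplicate, fifteen myeloid leukaemia cell lines were grown in RPMI 1640 for 72 h at 37 °C with 5% CO2. Luminescent ATP viability was scaled between vehicle and a positive control at 10 µM. The IC50 was then taken from log-logistic dose–response fits with four parameters.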

[2] = tested on: HL-60; assay: cell viability (% survival relative to DMSO control); higher = less cytotoxic
Outline: (§1)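 In 384-well plates, the full library was rescreened in duplicate on HL-60 cells in RPMI 1640 with 10% FBS, at 1–10,000 nM in five tenfold concentrations, for 72 h at 37 °C, 5% CO2. Each run also held DMSO or 100 nM of one of three metabolic inhibitors. Viability was measured by CellTiter-Glo and normalised to DMSO wells and to wells with proteasome inhibitor, present at 10 μM. Any area under the curve comes from four-parameter log-logistic fitting with drc and PharmacoGx.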

[3] = tested on: BV-173; assay: cell viability (% survival relative to DMSO control, bortezomib = 0%); higher = less cytotoxic
Outline: (§2)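 Reported values are percent survival from duplicate wells, averaged. Fifteen myeloid leukaemia cell lines were treated in 384-well plates with compounds at 1, 10, 100, 1000 or 10000 nM for 72 h at 37 °C in 5% CO2. Signals from CellTiter-Glo luminescence were scaled with vehicle as 100% and a 10 µM positive control as 0%.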

[4] = tested on: HEL; assay: as above
Outline: as §2

[5] = tested on: HL-60; assay: as above
Outline: as §2

[6] = tested on: K-562; assay: as above
Outline: as §2

[7] = tested on: KCL-22; assay: as above
Outline: as §2

[8] = tested on: KG-1; assay: as above
Outline: as §2

[9] = tested on: KU-812; assay: as above
Outline: as §2

[10] = tested on: LAMA-84; assay: as above
Outline: as §2

[11] = tested on: ML-2; assay: as above
Outline: as §2

[12] = tested on: MOLM-13; assay: as above
Outline: as §2

[13] = tested on: MV4-11; assay: as above
Outline: as §2

[14] = tested on: Mono-Mac-6; assay: as above
Outline: as §2

[15] = tested on: NOMO-1; assay: as above
Outline: as §2

[16] = tested on: SHI-1; assay: as above
Outline: as §2

[17] = tested on: THP-1; assay: as above
Outline: as §2

[18] = tested on: HL-60; assay: area under dose-response curve (viability, 1 nM-10 uM) (fraction (0-1)); higher = more sensitive
Outline: as §1

NC(CCC(=O)NC(CSCc1ccc(Br)cc1)C(=O)NCC(=O)OC1CCCC1)C(=O)OC1CCCC1 (centres undefined) [S-para-Bromobenzylglutathione cyclopentyl diester]
IC50 (cell viability) [1]: > 10 µM | cell viability ([2]; 0.001 µM, co-treatment: AZD3965 100 nM): 101 ± 4% | cell viability ([2]; 0.001 µM, co-treatment: DMSO vehicle): 102 ± 2.7% | cell viability ([2]; 0.001 µM, co-treatment: GSK2194069 100 nM): 104.2 ± 1% | cell viability ([2]; 0.001 µM, co-treatment: pictilisib 100 nM): 97.1 ± 9.2% | cell viability ([2]; 0.01 µM, co-treatment: AZD3965 100 nM): 98.9 ± 1.1% | cell viability ([2]; 0.01 µM, co-treatment: DMSO vehicle): 91.6 ± 11% | cell viability ([2]; 0.01 µM, co-treatment: GSK2194069 100 nM): 85.8 ± 36% | cell viability ([2]; 0.01 µM, co-treatment: pictilisib 100 nM): 87.5 ± 17% | cell viability ([2]; 0.1 µM, co-treatment: AZD3965 100 nM): 102 ± 3.9% | cell viability ([2]; 0.1 µM, co-treatment: DMSO vehicle): 106 ± 1.5% | cell viability ([2]; 0.1 µM, co-treatment: GSK2194069 100 nM): 110 ± 5.5% | cell viability ([2]; 0.1 µM, co-treatment: pictilisib 100 nM): 113 ± 9.7% | cell viability ([2]; 1 µM, co-treatment: AZD3965 100 nM): 91.1 ± 10% | cell viability ([2]; 1 µM, co-treatment: DMSO vehicle): 97.4 ± 3% | cell viability ([2]; 1 µM, co-treatment: GSK2194069 100 nM): 95 ± 9.2% | cell viability ([2]; 1 µM, co-treatment: pictilisib 100 nM): 76.7 ± 18% | cell viability ([2]; 10 µM, co-treatment: AZD3965 100 nM): 77.1 ± 6.2% | cell viability ([2]; 10 µM, co-treatment: DMSO vehicle): 94.4 ± 3.5% | cell viability ([2]; 10 µM, co-treatment: GSK2194069 100 nM): 87.2 ± 5.7% | cell viability ([2]; 10 µM, co-treatment: pictilisib 100 nM): 55.5 ± 3.4% | cell viability ([3]; 1 nM): 96.5% | cell viability ([3]; 10 nM): 88.3% | cell viability ([3]; 100 nM): 97% | cell viability ([3]; 1000 nM): 77.1% | cell viability ([3]; 10000 nM): 28% | cell viability ([4]; 1 nM): 114% | cell viability ([4]; 10 nM): 88.2% | cell viability ([4]; 100 nM): 113% | cell viability ([4]; 1000 nM): 102% | cell viability ([4]; 10000 nM): 77% | cell viability ([5]; 1 nM): 97.3% | cell viability ([5]; 10 nM): 92.7% | cell viability ([5]; 100 nM): 105% | cell viability ([5]; 1000 nM): 90% | cell viability ([5]; 10000 nM): 100% | cell viability ([6]; 1 nM): 105% | cell viability ([6]; 10 nM): 106% | cell viability ([6]; 100 nM): 104% | cell viability ([6]; 1000 nM): 112% | cell viability ([6]; 10000 nM): 93.2% | cell viability ([7]; 1 nM): 103% | cell viability ([7]; 10 nM): 97.9% | cell viability ([7]; 100 nM): 104% | cell viability ([7]; 1000 nM): 111% | cell viability ([7]; 10000 nM): 98.3% | cell viability ([8]; 1 nM): 145% | cell viability ([8]; 10 nM): 102% | cell viability ([8]; 100 nM): 49.9% | cell viability ([8]; 1000 nM): 43.4% | cell viability ([8]; 10000 nM): 105% | cell viability ([9]; 1 nM): 90.1% | cell viability ([9]; 10 nM): 97.2% | cell viability ([9]; 100 nM): 95.9% | cell viability ([9]; 1000 nM): 101% | cell viability ([9]; 10000 nM): 93.9% | cell viability ([10]; 1 nM): 101% | cell viability ([10]; 10 nM): 110% | cell viability ([10]; 100 nM): 93.3% | cell viability ([10]; 1000 nM): 98.2% | cell viability ([10]; 10000 nM): 98.9% | cell viability ([11]; 1 nM): 102% | cell viability ([11]; 10 nM): 87.1% | cell viability ([11]; 100 nM): 105% | cell viability ([11]; 1000 nM): 105% | cell viability ([11]; 10000 nM): 8.21% | cell viability ([12]; 1 nM): 113% | cell viability ([12]; 10 nM): 111% | cell viability ([12]; 100 nM): 92.6% | cell viability ([12]; 1000 nM): 90% | cell viability ([12]; 10000 nM): 89.2% | cell viability ([13]; 1 nM): 109% | cell viability ([13]; 10 nM): 89.3% | cell viability ([13]; 100 nM): 106% | cell viability ([13]; 1000 nM): 98.7% | cell viability ([13]; 10000 nM): 93.4% | cell viability ([14]; 1 nM): 108% | cell viability ([14]; 10 nM): 96.5% | cell viability ([14]; 100 nM): 88.8% | cell viability ([14]; 1000 nM): 90.6% | cell viability ([14]; 10000 nM): 63.3% | cell viability ([15]; 1 nM): 98% | cell viability ([15]; 10 nM): 98.1% | cell viability ([15]; 100 nM): 97.4% | cell viability ([15]; 1000 nM): 97.8% | cell viability ([15]; 10000 nM): 95.8% | cell viability ([16]; 1 nM): 98.2% | cell viability ([16]; 10 nM): 109% | cell viability ([16]; 100 nM): 98.5% | cell viability ([16]; 1000 nM): 91.3% | cell viability ([16]; 10000 nM): 99.9% | cell viability ([17]; 1 nM): 103% | cell viability ([17]; 10 nM): 97.5% | cell viability ([17]; 100 nM): 96.8% | cell viability ([17]; 1000 nM): 101% | cell viability ([17]; 10000 nM): 92% | area under dose-response curve ([18]; co-treatment: DMSO vehicle): < 0.0301 | area under dose-response curve ([18]; co-treatment: GSK2194069 100 nM): < 0.0301 | area under dose-response curve ([18]; co-treatment: pictilisib 100 nM): 0.0772
